Data taken from patent US4207343A, “1-Phenyl-3-(substituted phenoxy)propylamines” (priority 1978, dated 1980).

Experiments:
[1] = tested on: serotonin uptake by synaptosomes from rat brain; assay: Blockage of serotonin uptake in vitro by synaptosomes from rat brain (Table 1); format: biochemical; settings: serotonin 0.1 μuM, read-out: IC50 Serotonin (concentration that blocks uptake by 50 percent)
Text: (§1) This blockade is shown both in vitro using radioactive labelled compounds to determine the amount of monoamine uptake by synaptosomes from rat brain, and in vivo by a variety of methods using the procedure of Wong and Bymaster, Biochem. Pharmacol., 25, 1978 (1976). Among the physiologically active monoamines whose uptake is blocked by the compounds of this invention are included serotonin, norepinephrine and dopamine (3,4-dihydroxyphenylethylamine). […] Table 1 which follows sets forth the results of some of the in vitro determinations of the blockage of monoamine uptake by the compounds of this invention. In the table, column 1 gives the R substituent on the 1-phenylpropylamine, colums 2 and 3, the R^1 and R^2 substituents on the amine nitrogen and columns […], the concentration in micrograms per ml. that blocks the uptake of a particular amine by 50 percent (IC50) for the amines, serotonin and norephinephrine. At the head of each column is given the concentration of the particular monoamine used in the experiment.

[2] = tested on: uptake of serotonin by hypothalamic synaptosomes; assay: In vivo inhibition of serotonin uptake by hypothalamic synaptosomes after intraperitoneal injection; settings: ip, as hydrochloride salt, read-out: calculated ED50 (effective dose), inhibition of serotonin uptake by hypothalamic synaptosomes
Experimental: (§2) There was also a decrease in norepinephrine uptake at a 100 mg./kg level but the reduction was less than 50% at this high dose level.

[3] = tested on: serotonin uptake versus norepinephrine uptake; assay: Relative effectiveness in inhibiting serotonin versus norepinephrine uptake
uptake of norepinephrine = target: T1, uptake of norepinephrine (Rattus norvegicus, UniProt Q63380); assay: Inhibition of norepinephrine uptake in synaptosomes, kinetics; format: biochemical, Sprague-Dawley rats
T1 construct: from tissue; host or cells: synaptosomes of Sprague-Dawley rat brain (cortex, by 'similar experiment')
T1 sequence (Q63380 1-617): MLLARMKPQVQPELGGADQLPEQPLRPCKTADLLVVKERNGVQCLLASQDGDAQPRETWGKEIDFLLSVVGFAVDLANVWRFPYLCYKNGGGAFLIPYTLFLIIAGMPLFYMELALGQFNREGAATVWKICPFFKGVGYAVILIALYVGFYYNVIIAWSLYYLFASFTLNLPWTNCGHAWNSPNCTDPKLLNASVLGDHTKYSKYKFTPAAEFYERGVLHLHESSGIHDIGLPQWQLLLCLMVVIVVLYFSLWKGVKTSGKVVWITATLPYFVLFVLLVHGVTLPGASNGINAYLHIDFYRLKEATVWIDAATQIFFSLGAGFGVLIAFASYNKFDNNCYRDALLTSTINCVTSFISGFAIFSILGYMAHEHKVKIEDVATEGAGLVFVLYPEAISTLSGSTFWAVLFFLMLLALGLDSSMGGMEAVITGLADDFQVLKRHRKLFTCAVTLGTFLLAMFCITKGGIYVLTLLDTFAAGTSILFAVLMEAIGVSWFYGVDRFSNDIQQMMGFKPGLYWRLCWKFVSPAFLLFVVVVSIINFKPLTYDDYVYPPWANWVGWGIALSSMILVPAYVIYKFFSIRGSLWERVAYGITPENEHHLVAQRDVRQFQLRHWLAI
Experimental: (§3) The uptake of serotonin in cortical synaptosomes and in platelets of human plasma in the presence of this compound were studied. Corticosynaptosomes were prepared as follows: Sprague-Dawley rats weighing about 150 g. were decapitated and their brains immediately removed and dissected. Crude synaptosomes were prepared from a 10 percent homogenate in 0.32 M scurose and in 10 μM glucose by differential centrifugation according to the procedure of Wong and Bymaster (loc. cit.).

norepinephrine uptake = assay: In vivo decrease in norepinephrine uptake after intraperitoneal injection; settings: 100 mg./kg level, hydrochloride salt
Experimental: as §2

[4] = tested on: uptake of physiologically active monoamines; assay: Blocking of uptake of physiologically active monoamines (serotonin, norepinephrine, dopamine); settings: in vitro and in vivo
Text: as §1

[5] = tested on: norepinephrine uptake by synaptosomes from rat brain; assay: Blockage of norepinephrine uptake in vitro by synaptosomes from rat brain (Table 1); format: biochemical; settings: norepinephrine 0.48 μuM, read-out: IC50 Norepinephrine (concentration that blocks uptake by 50 percent)
Text: as §1

[6] = target: dopamine uptake from synaptosomes isolated from corpus striatum (Rattus norvegicus, UniProt P23977); assay: Inhibition of dopamine uptake in synaptosomes isolated from corpus striatum
dopamine uptake from synaptosomes isolated from corpus striatum, sequence (P23977 whole entry): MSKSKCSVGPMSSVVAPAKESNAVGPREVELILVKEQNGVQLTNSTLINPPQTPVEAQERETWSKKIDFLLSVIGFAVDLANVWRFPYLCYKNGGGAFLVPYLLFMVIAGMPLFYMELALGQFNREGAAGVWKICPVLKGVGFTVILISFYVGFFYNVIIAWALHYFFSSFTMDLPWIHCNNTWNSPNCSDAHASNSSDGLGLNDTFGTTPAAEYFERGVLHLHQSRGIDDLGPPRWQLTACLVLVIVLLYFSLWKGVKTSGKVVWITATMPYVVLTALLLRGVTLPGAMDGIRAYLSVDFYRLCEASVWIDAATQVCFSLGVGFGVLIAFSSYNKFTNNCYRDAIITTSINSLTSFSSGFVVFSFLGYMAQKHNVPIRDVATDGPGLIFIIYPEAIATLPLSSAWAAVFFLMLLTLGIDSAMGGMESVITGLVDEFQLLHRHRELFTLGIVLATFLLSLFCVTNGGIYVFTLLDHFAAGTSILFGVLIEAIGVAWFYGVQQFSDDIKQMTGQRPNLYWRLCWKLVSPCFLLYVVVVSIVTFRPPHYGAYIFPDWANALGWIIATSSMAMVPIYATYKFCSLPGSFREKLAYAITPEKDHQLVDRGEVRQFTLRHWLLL

[7] = target: uptake of serotonin in cortical synaptosomes (Rattus norvegicus, UniProt P31652); assay: Inhibition of serotonin uptake in cortical synaptosomes, kinetics; format: biochemical, Sprague-Dawley rats
uptake of serotonin in cortical synaptosomes, sequence (P31652 whole entry): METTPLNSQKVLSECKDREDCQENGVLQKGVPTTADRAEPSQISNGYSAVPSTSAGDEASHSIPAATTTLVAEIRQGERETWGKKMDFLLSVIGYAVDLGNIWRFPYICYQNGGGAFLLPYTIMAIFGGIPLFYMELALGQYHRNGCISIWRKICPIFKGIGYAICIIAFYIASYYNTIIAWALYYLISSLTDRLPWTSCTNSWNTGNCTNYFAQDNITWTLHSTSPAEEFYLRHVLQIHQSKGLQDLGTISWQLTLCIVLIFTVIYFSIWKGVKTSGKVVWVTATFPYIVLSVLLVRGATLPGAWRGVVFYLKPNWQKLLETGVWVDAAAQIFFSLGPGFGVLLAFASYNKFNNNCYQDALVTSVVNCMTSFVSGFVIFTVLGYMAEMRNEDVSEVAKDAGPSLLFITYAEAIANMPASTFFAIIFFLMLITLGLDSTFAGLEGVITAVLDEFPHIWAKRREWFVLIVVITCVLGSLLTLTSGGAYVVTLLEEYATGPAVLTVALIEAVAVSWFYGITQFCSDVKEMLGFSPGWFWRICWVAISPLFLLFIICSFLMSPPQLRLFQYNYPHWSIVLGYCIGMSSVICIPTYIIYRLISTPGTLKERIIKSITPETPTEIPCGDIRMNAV
Experimental: as §3

[8] = tested on: uptake of serotonin by platelets; settings: human platelet-rich plasma; estimated value
Experimental: A study of the uptake of serotonin from platelets was carried out as follows: platelet-rich plasma from human volunteers was prepared according to the method of Sneddon, Brit. […] The platelet uptake of serotonin was determined by the procedure of Horng and Wong, Biochem. Pharmacol., 25, 865 (1976).

[9] = tested on: chronic undifferentiated schizophrenic patients; settings: oral administration, cited from earlier work

SMILES: Cc1ccc(OCCC(c2ccccc2)N(C)C)cc1 (stereo not shown)
- IC50 [1]: 80 nM
- ED50 [2]: 12 mg/kg
- relative effectiveness, serotonin versus norepinephrine uptake (in words) [3]: far more effective in inhibiting serotonin uptake than in inhibiting norepinephrine uptake
- mode of inhibition of norepinephrine uptake (uptake of norepinephrine): competitively inhibited the uptake of norepinephrine
- Ki (uptake of norepinephrine; synaptosomes, competitive, read-out: inhibitory constant KI, norepinephrine uptake): 2200 nM
- reduction in norepinephrine uptake (norepinephrine uptake): less than 50%
- block of uptake of monoamines (in words) [4]: particularly active in inhibiting the uptake of biogenic amines
- IC50 [5]: 5 µM
- Ki [6]: 2500 nM
- mode of inhibition of serotonin uptake ([7]; 0.01, 0.05 and 0.1 μM): competitively inhibited uptake of serotonin
- Ki ([7]; cortical synaptosomes, compound at 0.01, 0.05 and 0.1 μM, competitive, read-out: inhibitor constant KI, serotonin uptake): 60 nM
- estimated IC50, serotonin uptake by platelets [8]: 14 nmol

SMILES: N[C@@H](Cc1c[nH]c2ccc(O)cc12)C(=O)O [l-5-hydroxytryptophane]
- number of schizophrenic patients improved, of 7 ([9]; 6 of 7 patients): 6 patients
- improvement in schizophrenic patients (in words) [9]: mild to moderate improvement

SMILES: COc1cccc(OCCC(N)c2ccccc2)c1 (stereo not shown) [m-anisyl, H, H, 1-Phenyl-3-(m-anisyloxy)propylamine]
- IC50 [1]: 2000 nM
- IC50 [5]: 3 µM

SMILES: Cc1cccc(OCCC(c2ccccc2)N(C)C)c1 (stereo not shown) [m-tolyl, CH3, CH3]
- IC50 [1]: 80 nM
- IC50 [5]: 5.1 µM

SMILES: Cc1cccc(OCCC(N)c2ccccc2)c1 (stereo not shown) [m-tolyl, H, H]
- IC50 [1]: 1400 nM
- IC50 [5]: 5.7 µM

SMILES: COc1ccccc1OCCC(c1ccccc1)N(C)C (stereo not shown) [o-anisyl, CH3, CH3, N,N-dimethyl 3-(o-anisyloxy)-1-phenylpropylamine]
- IC50 [1]: 100 nM
- IC50 [5]: 0.3 µM

SMILES: CNC(CCOc1ccccc1OC)c1ccccc1 (stereo not shown) [o-anisyl, CH3, H, N-methyl 1-phenyl-3-(o-anisyloxy)propylamine]
- IC50 [1]: 500 nM
- IC50 [5]: 0.5 µM

SMILES: COc1ccccc1OCCC(N)c1ccccc1 (stereo not shown) [o-anisyl, H, H, 1-phenyl-3-(o-anisyloxy)propylamine]
- IC50 [1]: 4300 nM
- IC50 [5]: 1.4 µM

SMILES: Cc1ccccc1OCCC(N)c1ccccc1 (stereo not shown) [o-tolyl, H, H, 3-(o-cresol)-1-phenylpropylamine]
- IC50 [1]: 350 nM
- IC50 [5]: 4.6 µM

SMILES: COc1ccc(OCCC(c2ccccc2)N(C)C)cc1 (stereo not shown) [p-anisyl, CH3, CH3, N,N-dimethyl 3-(p-anisyloxy)-1-phenylpropylamine]
- IC50 [1]: 280 nM
- IC50 [5]: 5.1 µM

SMILES: COc1ccc(OCCC(N)c2ccccc2)cc1 (stereo not shown) [p-anisyl, H, H, 3-(p-anisyloxy)-1-phenylpropylamine]
- IC50 [1]: 350 nM
- IC50 [5]: 7 µM

SMILES: Cc1ccc(OCCC(N)c2ccccc2)cc1 (stereo not shown) [p-tolyl, H, H]
- IC50 [1]: 400 nM
- IC50 [5]: 2.1 µM

SMILES: CN(C)C(CCOc1ccc(C(F)(F)F)cc1)c1ccccc1 (stereo not shown) [p-trifluoromethylphenyl, CH3, CH3, N,N-dimethyl 1-phenyl-3-(p-trifluoromethylphenoxy)-propylamine]
- IC50 [1]: 210 nM
- IC50 [5]: 10 µM

SMILES: CNC(CCOc1ccc(C(F)(F)F)cc1)c1ccccc1 (stereo not shown) [p-trifluoromethylphenyl, CH3, H, N-methyl 1-phenyl-3-(p-trifluoromethylphenoxy)-propylamine]
- IC50 [1]: 210 nM
- IC50 [5]: 10 µM

SMILES: NC(CCOc1ccc(C(F)(F)F)cc1)c1ccccc1 (stereo not shown) [p-trifluoromethylphenyl, H, H, 1-phenyl-3-(p-trifluoromethylphenoxy)propylamine]
- IC50 [1]: 320 nM
- IC50 [5]: 10 µM

SMILES: CN(C)C(CCOc1ccccc1)c1ccccc1 (stereo not shown) [phenyl, CH3, CH3, N,N-dimethyl 1-phenyl-3-phenoxypropylamine]
- IC50 [1]: 1000 nM
- IC50 [5]: 0.7 µM

SMILES: CNC(CCOc1ccccc1)c1ccccc1 (stereo not shown) [phenyl, CH3, H, N-methyl 3-phenoxy-1-phenylpropylamine]
- IC50 [1]: 1000 nM
- IC50 [5]: 0.36 µM

SMILES: NC(CCOc1ccccc1)c1ccccc1 (stereo not shown) [phenyl, H, H, 1-Phenyl-3-phenoxypropylamine]
- IC50 [1]: 5600 nM
- IC50 [5]: 0.56 µM
